The NIST ThermoML archive (doi:10.1016/j.jct.2007.04.005)

Test: xn = mol fraction of the nth substance listed
Settings: 298.15 K, Liquid

CCCCCCCCC [nonane] + C1CCCCC1
mass density [kg/m3]
Settings | x2 = 0 | x2 = 0.09303 | x2 = 0.2009 | x2 = 0.3051 | x2 = 0.417 | x2 = 0.512 | x2 = 0.5996 | x2 = 0.7052 | x2 = 0.7993 | x2 = 0.9039
18340 kPa | – | – | – | – | – | – | – | 760.7 | 768 | 777.3
20370 kPa | 728.6 | 731.6 | 735.7 | 740 | 745.1 | 749.8 | 755.2 | 762.1 | 769.4 | 778.8
22390 kPa | 730 | 732.9 | 737.1 | 741.4 | 746.5 | 751.3 | 756.6 | 763.5 | 770.8 | 780.2
24420 kPa | 731.3 | 734.2 | 738.4 | 742.7 | 747.9 | 752.6 | 758 | 764.9 | 772.2 | 781.6
26450 kPa | 732.6 | 735.6 | 739.8 | 744.1 | 749.2 | 753.9 | 759.3 | 766.3 | 773.5 | 783
28470 kPa | 733.9 | 736.9 | 741.1 | 745.3 | 750.5 | 755.2 | 760.6 | 767.6 | 774.9 | 784.3
29490 kPa | 734.5 | 737.5 | 741.7 | 746 | 751.1 | 755.8 | 761.3 | 768.2 | 775.5 | 785
30500 kPa | 735.1 | 738.1 | 742.3 | 746.6 | 751.8 | 756.5 | 761.9 | 768.9 | 776.2 | 785.7
32530 kPa | 736.4 | 739.4 | 743.6 | 747.9 | 753 | 757.7 | 763.2 | 770.2 | 777.5 | 787
34550 kPa | 737.6 | 740.7 | 744.8 | 749.1 | 754.3 | 759 | 764.5 | 771.5 | 778.7 | 788.2
36580 kPa | 738.8 | 741.8 | 746 | 750.3 | 755.5 | 760.2 | 765.7 | 772.7 | 780 | 789.5
38600 kPa | 740 | 743 | 747.2 | 751.5 | 756.7 | 761.4 | 766.9 | 773.9 | 781.4 | 790.7
39620 kPa | 740.6 | 743.6 | 747.8 | 752.1 | 757.3 | 762 | 767.5 | 774.5 | – | 791.3
